{
  "source": "paper PMC11339798",
  "about": "“Dual inhibitors of Pseudomonas aeruginosa virulence factors LecA and LasB” (Chemical Science, 2024)",
  "key": {"[1]": {"assay": "Disulfide formation assay: thiol stability in P. aeruginosa culture supernatant (LC-MS)", "type": "in vitro ADME", "settings": "Pseudomonas aeruginosa, pH 7.4, P. aeruginosa culture supernatant, 37 °C, read-out: thiol half-life (conversion into disulfide)", "text": "Disulfide formation in the presence of P. aeruginosa culture supernatant was studied for the two inhibitors 11 and 12 and analyzed by liquid chromatography-mass spectrometry (LC-MS) (Fig. 3B). Disulfides 26 and 27 were synthesized via oxidation with H2O2 in DMSO/H2O and used as reference compounds for the stability assay (Fig. 3A). […] The separation of those two peaks of the benzylated derivative 26 using preparative HPLC gave 26a and 26b (m/z of 901.28, Fig. S1 ^†).\nIn the presence of the bacterial culture supernatant of P. aeruginosa, the conversion of thiols 11 and 12 into the corresponding disulfides 26 and 27 was monitored at 37 °C and thiol half-lives of 48 min for 11 and 70 min for 12 were determined (Fig. 3B).\nDisulfide formation assay\nThe stability of two thiols 11 and 12 and their ability to form the corresponding disulfides was analyzed by HPLC-MS. […] Samples were drawn over 4.5 hours and analyzed by LC-MS using a RP-18 column 100/2 Nucleoshell RP18plus, 2.7 μm from Macherey-Nagel, Germany (H2O/MeCN + 0.1% formic acid, 15 – 55% MeCN, retention time (t R) 5.8 min (11 or 12), 6.1 min and 6.3 min (disulfide products 26 or 27) on a Thermo Dionex Ultimate 3000 HPLC coupled to a Bruker amaZon SL mass spectrometer, with UV detection at 254 nm). Thiol half-lives were determined by analysis of the obtained graphs and values of 80 min for 11 and 46 min for 12 were obtained […]"}, "A549 cells": {"test_system": "A549 cells", "assay": "Inhibition of LasB-dependent cytotoxicity of P. aeruginosa PAO1 culture supernatant on A549 cells (MTT)", "type": "cell-based, human", "settings": "for A549 cell viability under PAO1 culture supernatant: 10% (v/v) PAO1 supernatant", "method": "Next, we set out to analyze the ability of the dual inhibitor 12 and the individual treatment or combination of galactoside 1 and thiol 2 to reduce LasB-dependent cytotoxicity from P. aeruginosa PAO1 culture supernatant on A549 cells. None of the investigated compounds influenced A549 cell viability at 100 μM in the absence of bacterial culture supernatant (Fig. S4 ^†). […]\nIn vitro evaluation of 12 and a combination of 1 and 2 using P. aeruginosa culture supernatant and A549 cells in a cell viability assay\nThe A549 cell line, derived from human lung adenocarcinoma, was grown in Dulbecco's Modified Eagle Medium (DMEM) supplemented with 10% Fetal Bovine Serum (FBS) and 1% penicillin-streptomycin. The cells were cultured following standard protocols for cell […]\nTo prepare the bacterial culture supernatant, individual flasks containing 15 mL of lysogeny broth (LB) culture medium were inoculated with PAO1 or PAO1 ΔlasB strains. Culture flasks were placed on a shaker and incubated at 37 °C and 180 rpm overnight for 18 hours. Following incubation, the bacterial cultures were subjected to centrifugation at 4 °C and 5000 rpm for […]\n10 min, facilitating the separation of bacterial cells from the supernatant. The latter was filtered through a 0.22 µm sterile filter and stored at –80 °C until further use.\nIn a flat bottom 96-well plate (Corning™ Costar™), each well was seeded with 2.5–3.5*10 3 cells in 100 µL DMEM/FCS and then incubated at a temperature of 37 °C with 5% CO2 for 24 hours. Then, compounds 12 and 1 combined with 2 in concentrations of 100 µM, 10 µM, and 1 µM were mixed with 10% (v/v) of culture supernatant of P. aeruginosa PAO1 (DSM 22644, ATCC 15692) in DMEM/FCS. To minimize the potential negative effect of DMSO, the compound was initially dissolved in 99.9% DMSO, and a final assay concentration of 0.5% DMSO was applied. Additionally, the cells were exposed to 10% (v/v) PAO1 ΔlasB culture supernatant to analyze the effect caused by LasB, while DMEM/FCS without any treatment served as a control. The plates were then incubated at 37 °C with 5% CO2 for 24 hours before conducting the MTT assay.\nTo assess cell viability, the medium in the well plates was aspirated and a single wash was performed using 100 µL of phosphate buffered saline, pH 7.4 (PBS). A solution of 5 mg MTT (3-(4,5-dimethylthiazol-2-yl)-2,5-diphenyl tetrazolium bromide) per mL PBS was prepared and diluted to a concentration of 10% (v/v) in DMEM/FCS. Subsequently, 100 µL of this MTT solution was added to each well, and the plates were incubated at 37 °C for 3 hours with 5%\nCO2. After incubation, the MTT solution was carefully removed, and the formazan crystals were dissolved by adding 150 µL of lysis solution (250 mL DMSO, 25 g SDS, and 1.25 mL AcOH) to each well. The plates were then incubated for an additional 30 min at 37 °C and then, the UV absorbance was measured using a PHERAstar microplate reader. The test samples were read at a wavelength of 550 nm, while the blank was read at 620 nm. At last, the data were statistically analyzed and presented graphically using GraphPad Prism 9 (Figure S4 and S5).\nEvaluation of compounds 1, 2 and 12 in inhibiting LecA adhesion to A549 cells via […]\nThe A549 cell line were cultured following the protocols for cell maintenance described above.\nIn a flat-bottom cell culture black 96-well plate (Greiner Bio-One, #Cat 655090) each well was seeded with 1*104 cells in 100 µL DMEM/FCS and subsequently, incubated overnight at 37 °C with 5% CO2. […]"}},
  "data": [
    {"smiles": "O=C(Nc1ccc(S[C@@H]2O[C@H](CO)[C@H](O)[C@H](O)[C@H]2O)cc1)C(S)Cc1ccccc1", "note": "(stereo partly drawn) [Compound 11]", "values": [
      {"measurement": "half-life at 1.25 mM", "setting": "[1]", "result": 1.33, "unit": "h"}
    ]},
    {"smiles": "CC(C)CC(S)C(=O)Nc1ccc(S[C@@H]2O[C@H](CO)[C@H](O)[C@H](O)[C@H]2O)cc1", "note": "(stereo partly drawn) [Compound 12]", "values": [
      {"measurement": "half-life at 1.25 mM", "setting": "[1]", "result": 0.767, "unit": "h"},
      {"measurement": "A549 cell viability under PAO1 culture supernatant", "setting": "A549 cells; 1 μM compound", "result": "statistically significant beneficial effect on cell viability"},
      {"measurement": "A549 cell viability under PAO1 culture supernatant", "setting": "A549 cells; 10 μM compound", "result": "increase in cell viability compared to the combination of the individual LasB (2) and LecA (1) inhibitors"},
      {"measurement": "A549 cell viability under PAO1 culture supernatant", "setting": "A549 cells; 100 μM compound", "result": "increase in cell viability compared to the combination of the individual LasB (2) and LecA (1) inhibitors"},
      {"measurement": "cytotoxicity of PAO1 culture supernatant in presence of compound", "setting": "A549 cells; 100 μM compound, compared with LasB-deficient strain control", "result": "reached that of the LasB-deficient strain"}
    ]}
  ]
}
